Results from patent US20080051429A1, “USE OF 4-AMINO-PIPERIDINES FOR TREATING SLEEP DISORDERS” (priority 2006, published 2008).
Like-named read-outs stand apart in the source and are kept apart here.

Tests used:
Experiment in all cases: R-SAT broad profiling
Assay type in all cases: cell-based
[1] = molecular target: H1 (Homo sapiens, UniProt P35367); design: expressed in transfected cells; host or cells: NIH3T3; details: agonist; read-out: pEC50 or pIC50 (converted)
Description: (§1) The functional receptor assay, Receptor Selection and Amplification Technology (R-SAT), was used (with minor modifications from that previously described U.S. Pat. No. 5,707,798) to screen compounds for efficacy at the 5-HT2A receptor. Briefly, NIH3T3 cells were grown in 96 well tissue culture plates to 70-80% confluence. Cells were transfected for 12-16 hours with plasmid DNAs using superfect (Qiagen Inc.) as per manufacture's protocols. R-SAT's were generally performed with 50 ng/well of receptor and 20 ng/well of Beta-galactosidase plasmid DNA. All receptor and G-protein constructs used were in the pSI mammalian expression vector (Promega Inc) as described in U.S. Pat. No. 5,707,798. The 5HT2A receptor gene was amplified by nested PCR from brain cDNA using the oligodeoxynucleotides based on the published sequence (see Saltzman et. al. Biochem. Biophys. Res. Comm. 181:1469-78 (1991)). Large-scale transfections, cells were transfected for 12-16 hours, then trypsinized and frozen in DMSO. Frozen cells were later thawed, plated at 10,000-40,000 cells per well of a 96 well plate that contained drug. With both methods, cells were then grown in a humidified atmosphere with 5% ambient CO2 for five days. Media was then removed from the plates and marker gene activity was measured by the addition of the beta-galactosidase substrate ONPG (in PBS with 5% NP-40). The resulting colorimetric reaction was measured in a spectrophotometric plate reader (Titertek Inc.)at […]. All data were analyzed using the computer program XLFit (IDBSm). Efficacy is the percent maximal repression compared to repression by a control compound (ritanserin in the case of 5HT2A). pIC50 is the negative of the log(IC50), where IC50 is the calculated concentration in Molar that produces 50% maximal repression.
(§2) The R-SAT assay (described above in example 289) was used to investigate the selectivity of 4-(4-Fluoro-benzyl)-3-(4-isobutoxy-benzyl)-8-methyl-1-oxa-3,8-diaza-spiro[4.5]decan-2-one.

[2] = molecular target: 5HT1D (Homo sapiens, UniProt P28221); design: expressed in transfected cells; host or cells: NIH3T3; details: read-out: pEC50 or pIC50 (converted)
Chain of 5HT1D (P28221 whole entry, species assumed): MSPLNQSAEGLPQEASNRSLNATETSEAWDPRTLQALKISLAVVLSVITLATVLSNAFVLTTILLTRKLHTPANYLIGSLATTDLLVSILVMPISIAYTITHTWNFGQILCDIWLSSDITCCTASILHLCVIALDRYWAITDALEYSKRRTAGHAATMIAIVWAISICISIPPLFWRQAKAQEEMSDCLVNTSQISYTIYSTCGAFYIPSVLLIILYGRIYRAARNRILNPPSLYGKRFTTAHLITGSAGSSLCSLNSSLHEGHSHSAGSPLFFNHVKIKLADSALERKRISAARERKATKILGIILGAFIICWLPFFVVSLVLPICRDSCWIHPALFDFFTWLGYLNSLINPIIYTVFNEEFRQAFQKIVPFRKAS
Description: as §1, §2

[3] = molecular target: 5HT1E (Homo sapiens, UniProt P28566); design: expressed in transfected cells; host or cells: NIH3T3; details: read-out: pEC50 or pIC50 (converted)
Chain of 5HT1E (P28566 whole entry): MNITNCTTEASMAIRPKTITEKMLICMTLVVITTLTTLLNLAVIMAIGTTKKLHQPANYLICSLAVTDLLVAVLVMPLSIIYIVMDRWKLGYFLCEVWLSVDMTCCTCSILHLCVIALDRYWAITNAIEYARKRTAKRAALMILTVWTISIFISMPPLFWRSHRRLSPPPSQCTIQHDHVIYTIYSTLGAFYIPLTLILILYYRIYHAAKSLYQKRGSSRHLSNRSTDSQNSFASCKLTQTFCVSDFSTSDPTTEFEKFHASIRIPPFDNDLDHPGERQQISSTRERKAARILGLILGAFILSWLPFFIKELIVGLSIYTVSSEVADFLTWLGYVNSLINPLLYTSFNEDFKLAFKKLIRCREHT
Description: as §1, §2

[4] = molecular target: T1, 5HT1A (Homo sapiens, UniProt P08908); design: expressed in transfected cells; host or cells: NIH3T3; details: agonist; read-out: pEC50 or pIC50 (converted)
T1 sequence (P08908 1-422): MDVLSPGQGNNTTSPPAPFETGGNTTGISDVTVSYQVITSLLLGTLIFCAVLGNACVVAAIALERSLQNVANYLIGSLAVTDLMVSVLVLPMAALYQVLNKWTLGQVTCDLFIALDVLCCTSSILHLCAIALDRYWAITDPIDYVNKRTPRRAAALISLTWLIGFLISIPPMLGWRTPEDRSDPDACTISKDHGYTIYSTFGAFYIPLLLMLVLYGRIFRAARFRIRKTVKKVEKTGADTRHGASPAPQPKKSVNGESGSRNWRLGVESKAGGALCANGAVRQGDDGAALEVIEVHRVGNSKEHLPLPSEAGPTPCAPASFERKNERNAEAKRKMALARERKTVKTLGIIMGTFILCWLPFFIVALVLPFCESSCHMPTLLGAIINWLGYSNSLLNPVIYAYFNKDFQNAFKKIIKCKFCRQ
Description: as §1, §2

[5] = molecular target: T2, 5HT1F (Homo sapiens, UniProt P30939); design: expressed in transfected cells; host or cells: NIH3T3; details: read-out: pEC50 or pIC50 (converted)
T2 sequence (P30939 1-366): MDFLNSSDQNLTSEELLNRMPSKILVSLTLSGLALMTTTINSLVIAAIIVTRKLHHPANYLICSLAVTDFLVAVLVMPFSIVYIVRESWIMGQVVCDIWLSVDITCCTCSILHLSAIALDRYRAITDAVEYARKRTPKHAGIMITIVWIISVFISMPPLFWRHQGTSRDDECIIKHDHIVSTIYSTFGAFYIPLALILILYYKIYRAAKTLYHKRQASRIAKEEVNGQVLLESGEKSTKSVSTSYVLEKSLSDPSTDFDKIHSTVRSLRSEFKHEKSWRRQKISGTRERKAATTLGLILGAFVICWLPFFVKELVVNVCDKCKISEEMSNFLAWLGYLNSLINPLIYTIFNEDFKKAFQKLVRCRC
Description: as §1, §2

[6] = molecular target: 5HT2B (Homo sapiens, UniProt P41595); design: expressed in transfected cells; host or cells: NIH3T3; details: read-out: pEC50 or pIC50 (converted)
Chain of 5HT2B (P41595 whole entry): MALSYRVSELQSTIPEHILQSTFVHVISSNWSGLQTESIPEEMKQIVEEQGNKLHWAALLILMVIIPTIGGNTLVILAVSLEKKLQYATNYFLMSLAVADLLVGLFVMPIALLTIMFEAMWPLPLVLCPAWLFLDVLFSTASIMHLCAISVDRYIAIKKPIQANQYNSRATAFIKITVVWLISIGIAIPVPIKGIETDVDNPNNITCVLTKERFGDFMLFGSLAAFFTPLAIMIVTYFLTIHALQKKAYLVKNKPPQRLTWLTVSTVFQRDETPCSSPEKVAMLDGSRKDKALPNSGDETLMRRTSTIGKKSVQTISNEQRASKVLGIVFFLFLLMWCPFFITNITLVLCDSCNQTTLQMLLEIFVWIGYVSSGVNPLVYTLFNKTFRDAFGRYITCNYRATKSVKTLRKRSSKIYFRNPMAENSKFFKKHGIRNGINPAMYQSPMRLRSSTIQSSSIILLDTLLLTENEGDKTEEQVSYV
Description: as §1, §2

[7] = molecular target: D2 (Homo sapiens, UniProt P14416); design: expressed in transfected cells; host or cells: NIH3T3; details: read-out: pEC50 or pIC50 (converted)
Chain of D2 (P14416 whole entry): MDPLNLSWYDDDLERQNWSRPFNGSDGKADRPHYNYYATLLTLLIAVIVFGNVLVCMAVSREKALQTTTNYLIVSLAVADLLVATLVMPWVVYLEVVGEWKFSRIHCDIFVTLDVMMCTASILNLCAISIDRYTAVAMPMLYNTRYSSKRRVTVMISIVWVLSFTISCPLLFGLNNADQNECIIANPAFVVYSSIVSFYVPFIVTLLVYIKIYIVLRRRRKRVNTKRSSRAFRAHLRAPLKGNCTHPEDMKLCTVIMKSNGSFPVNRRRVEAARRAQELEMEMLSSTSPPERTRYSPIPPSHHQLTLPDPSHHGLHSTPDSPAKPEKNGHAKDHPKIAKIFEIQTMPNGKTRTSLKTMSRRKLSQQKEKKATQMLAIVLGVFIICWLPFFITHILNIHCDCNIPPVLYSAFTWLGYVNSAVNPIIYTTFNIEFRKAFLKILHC
Description: as §1, §2

[8] = molecular target: T3, m2 (Homo sapiens, UniProt P08172); details: agonist; read-out: pEC50 or pIC50 (converted)
T3 construct: expressed in transfected cells; host or cells: NIH3T3
T3 sequence (P08172 1-466): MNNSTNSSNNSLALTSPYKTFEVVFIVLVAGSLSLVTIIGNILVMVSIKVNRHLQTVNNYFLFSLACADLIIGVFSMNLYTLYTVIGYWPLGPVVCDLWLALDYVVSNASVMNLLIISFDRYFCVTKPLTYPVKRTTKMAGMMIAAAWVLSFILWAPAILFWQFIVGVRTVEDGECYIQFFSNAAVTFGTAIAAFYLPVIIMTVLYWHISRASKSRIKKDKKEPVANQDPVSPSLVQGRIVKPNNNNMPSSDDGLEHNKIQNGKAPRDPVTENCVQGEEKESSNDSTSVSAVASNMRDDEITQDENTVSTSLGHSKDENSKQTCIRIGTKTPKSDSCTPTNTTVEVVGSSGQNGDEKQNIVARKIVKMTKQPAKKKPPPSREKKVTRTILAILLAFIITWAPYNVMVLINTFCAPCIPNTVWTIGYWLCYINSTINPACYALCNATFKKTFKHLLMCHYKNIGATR
Description: as §1, §2

Chain of H1 (P35367 whole entry): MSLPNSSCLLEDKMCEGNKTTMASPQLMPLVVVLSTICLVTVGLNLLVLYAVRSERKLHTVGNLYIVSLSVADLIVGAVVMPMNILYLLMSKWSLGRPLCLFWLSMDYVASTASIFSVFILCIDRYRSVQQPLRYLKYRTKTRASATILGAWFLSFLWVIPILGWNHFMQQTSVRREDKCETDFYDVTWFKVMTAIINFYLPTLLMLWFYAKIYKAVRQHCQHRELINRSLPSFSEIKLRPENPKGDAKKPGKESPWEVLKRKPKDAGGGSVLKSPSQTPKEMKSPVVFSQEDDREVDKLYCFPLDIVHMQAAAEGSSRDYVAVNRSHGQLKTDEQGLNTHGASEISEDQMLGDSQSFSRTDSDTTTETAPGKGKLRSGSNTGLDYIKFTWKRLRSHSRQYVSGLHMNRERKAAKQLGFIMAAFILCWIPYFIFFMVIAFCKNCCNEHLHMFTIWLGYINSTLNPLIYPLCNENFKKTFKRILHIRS

CC(C)COc1ccc(CN2C(=O)OC3(CCN(C)CC3)C2Cc2ccc(F)cc2)cc1.Cl (racemic) [Example 69NLS75, 4-(4-Fluorobenzyl)-3-(4-isobutoxybenzyl)-8-methyl-1-oxa-3,8-diazaspiro[4.5]decan-2-one, hydrochloride]
EC50 [1]: > 3.16 µM
EC50 ([2]; agonist): > 3.16 µM
IC50 ([2]; antagonist): > 0.562 µM
EC50 ([3]; agonist): > 3.16 µM
IC50 ([3]; antagonist): > 0.631 µM
EC50 [4]: > 3.16 µM
EC50 ([5]; agonist): > 3.16 µM
IC50 ([5]; antagonist): > 3.16 µM
EC50 ([6]; agonist): > 3.16 µM
IC50 ([6]; antagonist): > 3.16 µM
IC50 ([6]; inverse): > 2.51 µM
EC50 ([7]; agonist): > 3.16 µM
IC50 ([7]; antagonist): > 3.16 µM
EC50 [8]: > 3.16 µM
